Source: ChEMBL document CHEMBL4706695, “Small molecule approaches to treat autoimmune and inflammatory diseases (Part I): Kinase inhibitors” (Bioorg Med Chem Lett, 2021)

Target: Tyrosine-protein kinase BTK (Homo sapiens, UniProt Q06187)
Test: Inhibition of BTK (unknown origin) One-hour enzymatic assay without pre-incubation

Tyrosine-protein kinase BTK, sequence (Q06187 whole entry): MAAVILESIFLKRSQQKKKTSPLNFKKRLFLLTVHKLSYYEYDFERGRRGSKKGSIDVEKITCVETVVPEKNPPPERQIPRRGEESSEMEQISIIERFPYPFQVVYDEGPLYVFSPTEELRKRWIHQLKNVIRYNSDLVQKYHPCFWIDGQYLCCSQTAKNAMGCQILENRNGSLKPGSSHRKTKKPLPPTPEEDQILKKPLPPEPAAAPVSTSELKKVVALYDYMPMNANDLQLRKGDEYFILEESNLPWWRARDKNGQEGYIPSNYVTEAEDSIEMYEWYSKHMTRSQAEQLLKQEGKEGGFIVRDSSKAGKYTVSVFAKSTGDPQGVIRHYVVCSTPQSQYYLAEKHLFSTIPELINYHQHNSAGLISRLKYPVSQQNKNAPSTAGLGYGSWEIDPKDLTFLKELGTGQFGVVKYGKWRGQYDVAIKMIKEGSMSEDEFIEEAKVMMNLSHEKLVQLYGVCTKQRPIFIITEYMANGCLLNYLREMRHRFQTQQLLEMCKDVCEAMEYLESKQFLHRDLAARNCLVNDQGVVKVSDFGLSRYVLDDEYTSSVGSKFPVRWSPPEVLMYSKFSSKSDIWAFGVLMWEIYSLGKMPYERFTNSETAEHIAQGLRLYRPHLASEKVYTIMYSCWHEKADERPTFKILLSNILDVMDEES

Row | IC50 [µM] | Structure (SMILES)
1 | 0.033 | C=CC(=O)N1CCC[C@@H](c2ccc(C(N)=O)c3[nH]ccc23)C1 [ELSUBRUTINIB]
2 | 0.0005 | N#CN1CCC[C@@H](n2nc(-c3ccc(Oc4ccc(F)cc4F)cc3)c(C(N)=O)c2N)C1
